For orientation: IC50 means the point on the concentration scale where inhibition reaches its midpoint. Broadly, the CC50 is the concentration that lowers cell viability or growth by half.

This note sets out measurements from ChEMBL document CHEMBL5113432, “Discovery of novel indole and indoline derivatives against Candida albicans as potent antifungal agents” (Bioorg Med Chem Lett, 2022).

Calls of active or inactive are those of the source. No cut-off for these calls is given here.

For series [1], the system named is Candida albicans. The series is described as follows: Antifungal activity against fluconazole-resistant Candida albicans ATCC10231FR assessed as inhibition of fungal growth by microdilution method. Format: functional, organism-based.
Series [2] has as its system Candida albicans. The series is described as follows: Antifungal activity against clinical strain Candida albicans CA187 assessed as inhibition of fungal growth by microdilution method. It is filed as functional, organism-based. On the technique in general: In broth dilution the organism is exposed to a series of concentrations in liquid medium.
Series [3] deals with Candida albicans. The series is described as follows: Antifungal activity against fluconazole-sensitive Candida albicans ATCC10231 assessed as inhibition of fungal growth by microdilution method. Format: functional, organism-based.
The subject of series [4] is Candida albicans. The series is described as follows: Antifungal activity against clinical strain Candida albicans CA808 assessed as inhibition of fungal growth by microdilution method. Format: functional, organism-based.
The subject of series [5] is Candida albicans. The series is described as follows: Antifungal activity against clinical strain Candida albicans CA4574 assessed as inhibition of fungal growth by microdilution method. It is filed as functional, organism-based.
For series [6], the system named is Candida albicans. The series is described as follows: Antifungal activity against clinical strain Candida albicans CA23 assessed as inhibition of fungal growth by microdilution method. Format: functional, organism-based.
For series [7], the system named is Candida albicans. The series is described as follows: Antifungal activity against fluconazole-sensitive Candida albicans SC5314 assessed as inhibition of fungal growth by microdilution method. Format: functional, organism-based.
In series [8] the test system is Candida albicans. The series is described as follows: Antifungal activity against fluconazole-resistant Candida albicans SC5314FR assessed as inhibition of fungal growth by microdilution method. It is filed as functional, organism-based.
For series [9], the system named is Candida albicans. The series can be described thus: Antifungal activity against Candida albicans assessed as downregulation of HWP1 by RT-PCR analysis. It is filed as functional, organism-based.
Series [10] deals with Candida albicans. The series can be described thus: Antifungal activity against Candida albicans assessed as downregulation of ECE1 by RT-PCR analysis. It is filed as functional, organism-based.
Series [11] concerns Candida albicans. The series is described as follows: Antifungal activity against Candida albicans assessed as inhibition of biofilm formation at 18 to 72 ug/ml incubated for 24 hrs by crystal violet staining based method. Format: functional, organism-based. The following applies: dose 18-72 µg/ml.
The subject of series [12] is Candida albicans. The series can be described thus: Antifungal activity against Candida albicans assessed as inhibition of hyphae formation in Spider medium at 18 to 72 ug/ml and measured upto 8 hrs by scanning electron microscopy. It is filed as functional, organism-based. The following applies: dose 18-72 µg/ml, DDE = dose-dependent effect.
For series [13], the system named is Candida albicans. The series is described as follows: Antifungal activity against Candida albicans assessed as downregulation of EFG1 by RT-PCR analysis. Format: functional, organism-based.
Series [14] relates to Candida albicans. The series can be described thus: Antifungal activity against Candida albicans assessed as decrease in filamentous hyphae length in Spider medium at 36 to 72 ug/ml by scanning electron microscopy. It is filed as functional, organism-based. The note with it: dose 36-72 µg/ml.
Series [15] has as its system Candida albicans. The series can be described thus: Antifungal activity against Candida albicans assessed as downregulation of ALS3 by RT-PCR analysis. Format: functional, organism-based.
Series [16] relates to Candida albicans. The series is described as follows: Antifungal activity against Candida albicans assessed as downregulation of CYR1 by RT-PCR analysis. Format: functional, organism-based.
Series [17] has as its system Candida albicans. The series can be described thus: Antifungal activity against Candida albicans assessed as inhibition of hyphae formation in Spider medium at 18 to 72 ug/ml and measured for 4 to 8 hrs by scanning electron microscopy. Format: functional, organism-based. The note with it: dose 18-72 µg/ml, time 4-8 hrs, TDE = time-dependent effect.
A short description of series [18]: Cytotoxicity against human 16HBE14o- assessed as inhibition of cell growth incubated for 24 hrs. It is filed as toxicity, cell-based. The note with it: 16HBE14o- cells.
For series [19], the system named is Candida albicans. The series can be described thus: Antifungal activity against Candida albicans assessed as inhibition of fungal growth at 18 to 72 ug/ml and measured upto 96 hrs by microdilution method. It is filed as functional, organism-based. The following applies: dose 18-72 µg/ml, DDE = dose-dependent effect.
The subject of series [20] is Candida albicans. The series is described as follows: Antifungal activity against Candida albicans assessed as inhibition of fungal growth at 18 to 72 ug/ml and measured 4 to 96 hrs by microdilution method. Format: functional, organism-based. The note with it: dose 18-72 µg/ml, time 4-96 hrs, TDE = time-dependent effect.
The subject of series [21] is Candida albicans. The series can be described thus: Antifungal activity against Candida albicans assessed as downregulation of RAS1 by RT-PCR analysis. Format: functional, organism-based.

Turning to `O=C(CCn1ccc2ccccc21)NCC/N=C/c1ccc(F)c(C(F)(F)F)c1`, the 50% inhibitory concentration (IC50) in the series on Candida albicans [1] was > 200 µg/mL.
Turning to `O=C(CCn1ccc2ccccc21)NCCNS(=O)(=O)c1ccc(F)c(C(F)(F)F)c1`, the IC50 in the series on Candida albicans [1] was > 200 µg/mL.
On the same count and under the same terms, the figure for `O=C(CCn1ccc2ccccc21)NCCNS(=O)(=O)c1cc(Cl)cc(Br)c1O` is > 200 µg/mL; for `O=C(CCn1ccc2ccccc21)NCC/N=C/c1ccc(OC(F)(F)F)cc1` it is 29 µg/mL; for `O=C(CCn1ccc2ccccc21)NCCNS(=O)(=O)c1cc([N+](=O)[O-])ccc1O` it is > 200 µg/mL.
On to `O=C(CCn1ccc2ccccc21)NCCNS(=O)(=O)c1cc(Br)ccc1O`, for which, in the series with Candida albicans [1], the IC50 is > 200 µg/mL.
With `OC(Cn1cncn1)(Cn1cncn1)c1ccc(F)cc1F` [FLUCONAZOLE], the IC50 was > 200 µg/mL in the series on Candida albicans [2]; 10 µg/mL in the series with Candida albicans [3]; > 200 µg/mL in the series on Candida albicans [4]; 1.2 µg/mL in the series on Candida albicans [5]; > 200 µg/mL in the series with Candida albicans [6]; 1.3 µg/mL with Candida albicans [7]. Also, the concentration for half-maximal inhibition (IC50) with Candida albicans [1] and in the series on Candida albicans [8] was > 200 µg/mL each time.
Consider `O=C(CCn1ccc2ccccc21)NCC/N=C/c1cc(Cl)c(F)cc1F`, for which the IC50 with Candida albicans [1] was > 200 µg/mL.
As for `CCN(CC)c1ccc(S(=O)(=O)NCCNC(=O)CCn2ccc3ccccc32)c(O)c1`, in the series on Candida albicans [1], the IC50 was > 200 µg/mL.
Still for that read-out and setting: the figure for `O=C(CCn1ccc2ccccc21)NCC/N=C/c1ccc(OCc2ccccc2)cc1O` is 18 µg/mL.
On the same count and under the same terms, the figure for `O=C(CCn1ccc2ccccc21)NCCNS(=O)(=O)c1ccc(Br)cc1` is > 200 µg/mL.
The same measure, in the same setting: the value for `COc1ccc(O)c(/C=N/CCNC(=O)CCn2ccc3ccccc32)c1` was > 200 µg/mL; that for `O=C(CCn1ccc2ccccc21)NCCNS(=O)(=O)c1cc(Cl)c(F)cc1F` was > 200 µg/mL.
With `COc1cc(O)c(/C=N/CCNC(=O)CCn2ccc3ccccc32)c(OC)c1`, the IC50 in the series with Candida albicans [1] is 86 µg/mL.
Still for that read-out and setting: the value for `O=C(CCn1ccc2ccccc21)NCCNS(=O)(=O)c1ccc(OCc2ccccc2)cc1O` was > 200 µg/mL.
Still for that read-out and setting: the figure for `O=C(CCn1ccc2ccccc21)NCC/N=C/c1ccc(Br)cc1` is > 200 µg/mL.
`CCN(CC)c1ccc(/C=N/CCNC(=O)CCn2ccc3ccccc32)c(O)c1`: the IC50 with Candida albicans [2] came to 39 µg/mL; with Candida albicans [3] it was 19 µg/mL; in the series on Candida albicans [4], 78 µg/mL; in the series with Candida albicans [5], 74 µg/mL; in the series on Candida albicans [6], 20 µg/mL; in the series with Candida albicans [7], 22 µg/mL. The IC50 in the series with Candida albicans [1] stood at 21 µg/mL; in the series on Candida albicans [8], 75 µg/mL. Besides, the result with Candida albicans [9], with Candida albicans [10], in the series with Candida albicans [13], in the series on Candida albicans [14], with Candida albicans [15] and in the series with Candida albicans [16] was Active. Moreover, the result in the series on Candida albicans [21] was Active. Besides, the inhibition result in the series with Candida albicans [11] is “Active”. Further, the inhibition result was “Dde” in the series with Candida albicans [12], “Tde” in the series on Candida albicans [17], “Dde” with Candida albicans [19] and “Tde” with Candida albicans [20]. Besides, the CC50 at 24 h in series [18] is > 200 µg/mL.
For the compound `O=C(CCn1ccc2ccccc21)NCCNS(=O)(=O)c1ccc(OC(F)(F)F)cc1`, the IC50 with Candida albicans [1] was > 200 µg/mL.
For `O=C(CCn1ccc2ccccc21)NCC/N=C/c1ccc(Cl)c(C(F)(F)F)c1`, in the series with Candida albicans [1], the IC50 came out at 24 µg/mL.
With `Cc1ccc(S(=O)(=O)NCCNC(=O)CCn2ccc3ccccc32)cc1`, the IC50 in the series with Candida albicans [1] was > 200 µg/mL.
